Series [1] has as its system CEM. The series can be described thus: Growth inhibition (IC50) in leukaemic CEM cells (Experiment 7). As to conditions: Homo sapiens, CCRF-CEM, 24 Stunden. It counts as cell-based. The text has this:
Hämatologische Zellen (CEM, HL-60) wurden für 24 Stunden mit unterschiedlichen Dosen verschiedener Triazenverbindungen inkubiert, um die IC50 zu bestimmen.

Series [2] relates to MCF-7-Zellen. The series can be described thus: Intracellular metabolisation of triazenes in MCF-7 cell culture (Experiment 1). The class given is in vitro ADME. As to conditions: MCF-7, 100nmol/ml, 100% FCS. Here is the method:
(§1) Es wird gezeigt, dass Verbindungen nach Beispiel 1 schneller und in größerer Menge intrazellulär metabolisiert werden als die als Vergleichssubstanzen eingesetzten Verbindungen nach Präparat 2 und 5 (entsprechend Verbindungen nach Präparat 2 und Beispiel 2a jeweils der WO 2009/004060).
(§2) Die getesteten Verbindungen wurden wie folgt gelöst: • Erfindungsgemäße Verbindung: • Beispiel 1 : in 20 mg/ml DMSO
(§3) Vergleichssubstanzen: • Präparat 2: in 50mg/ml DMSO, • Präparat 5: in 50mg/ml Wasser.
(§4) Alle drei Substanzen wurden äquimolar in einer Dosis von 100nmol/ml auf 1 x 10^7 HepG2 bzw. MCF-7-Zellen gegeben. Als Zellkulturmedium wurde 100% fötales Kälberserum (FCS) verwendet. Für den Versuch wurde der Gehalt aus Ausgangsprodukt und Metaboliten im Zellüberstand nach 1, 3 und 6 (HepG2) bzw. 1,3 und 20 Stunden (MCF-7) Inkubationszeit ermittelt. Alle drei Substanzen zeigten in Kontrollversuchen mit 100% FCS nach 40 Stunden metabolische Stabilität.

Series [3] relates to HepG2. The series can be described thus: Intracellular uptake of triazenes in HepG2 cells (Experiment 2). It counts as in vitro ADME. Particulars: HepG2, 50.000ng/ml, 10.000ng/ml O6-Benzylguanin, 2, 4 und 20 Stunden. Here is the method:
(§5) Es wird gezeigt, dass Verbindungen nach Beispiel 1 schneller und in größerer Menge intrazellulär aufgenommen werden als die als Vergleichssubstanzen eingesetzten Verbindungen nach Präparat 2 und 5 (entsprechend Verbindungen nach Präparat 2 und Beispiel 2a jeweils der WO 2009/004060).
(§6) Die getesteten Verbindungen wurden wie folgt gelöst: • Erfindungsgemäße Verbindung: • Beispiel 1: in 20 mg/ml DMSO
as §3
(§7) Alle drei Substanzen wurden in einer Dosis von 50.000ng/ml auf 2 x 10^7 HepG2 und HCT-8 sowie 2 x 10^6-MDA-MB231 Zellen gegeben. Als Zellkulturmedium wurde 100% (MDA-MB231: 50%) fötales Kälberserum (FCS) verwendet. Zudem wurde bei den Versuchen mit HepG2 und HCT-8 noch 10.000ng/ml O6-Benzylguanin zugesetzt. Für den Versuch wurde die intrazelluläre Konzentration von Ausgangsprodukt und Metaboliten nach 2, 4 und 20 (HepG2), 2 und 3,5 und 20 Stunden (MDA-MB231) und 2,4, 24 und 48 Stunden (HCT-8) Inkubationszeit ermittelt. Alle drei Substanzen zeigten in Kontrollversuchen mit 100% FCS nach 40 Stunden metabolische Stabilität.

For series [4], the system named is periphere Blutzellen (PBC). Description: Cell damage (apoptosis rate, CaspACE assay, flow cytometry) in peripheral blood cells (Experiment 5). It counts as cell-based. The text has this: Um die therapeutische Breite der neuen Substanzen abschätzen zu können, wurden periphere Blutzellen (PBC) und hämatologische Zellen (Nalm-6; CEM und U-937) für 24 Stunden mit unterschiedlichen Dosen verschiedener Triazenverbindungen bzw. Doxorubicin als positive Kontrolle für die hämatologischen Zelllinien inkubiert. Das Maß der Zellschädigung (Apoptoserate) wurde mittels CaspACE™ Assay (am Durchflusszytometer) bestimmt.
Verschiedene Triazene wie erfindungsgemäße Verbindungen nach Beispiel 1, TMZ sowie Verbindungen nach Präparat 2 und 5 (entsprechend Verbindungen nach Präparat 2 und Beispiel 2a jeweils der WO 2009/004060) wurden in DMSO bzw. Wasser entsprechend den Angaben in Abbildung 22 gelöst.
(§8) Periphäre Blutzellen (PBC) werden jeweils mit der IC50 für die MDA-MB231 gemäß Experiment 3 der entsprechenden Substanzen inkubiert. Es wird gezeigt, dass die erfindungsgemäße Verbindung nach Beispiel 1 nicht mehr DNA-Schädigungen in den PBC erzeugt als eine Negativkontrolle, […]
In general terms: In flow cytometry, cells or beads pass a laser one at a time.

The test system of series [5] is HL-60. The series can be described thus: Cell cycle analysis by flow cytometry in HL-60 (Experiment 9). It counts as cell-based. The text has this:
(§9) Die Progression durch den Zellzyklus ist charakterisiert durch die mitotische Teilung (M-Phase) und der sich anschließenden Interphase, Die Interphase gliedert sich wiederum in die G1 -, S- und G2-Phase, In der G1-Phase beginnt die Zelle zu wachsen und es liegt ein vollständiger Chromosomensatz vor. In der S-Phase erfolgt die Replikation der DNA, wodurch an ihrem Ende der zweifache Chromosomensatz vorliegt. In der G2-Phase bereitet sich die Zelle auf die mitotische Teilung vor, an dessen Ende wieder der einfache Chromosomensatz vorhanden ist. Zusätzlich zu diesen Phasen kann eine sog. sub-G1-Phase vorliegen. Diese ist charakterisiert durch fragmentierte, apoptotische Zellen, die durch degradierte DNA charakterisiert ist. In welchem Stadium sich die Zelle befindet bzw. arretiert sein kann, lässt sich mittels Durchflusszytometrie bestimmen (Brockhoff et al. 2007; Lenz et al. 2007).
(§10) Zellkulturen von MDA-MB231 bzw. HL-60 wurden mit der IC50 (MDA-MB231) bzw. IC90 (HL-60) der beiden Test-Substanzen für bis zu 72 Stunden inkubiert und auf die Zellzyklusentwicklung hin untersucht.

For series [6], the system named is MCF-7, MB-231, HepG2, HCT8, DU-145. Description: IC50 of triazenes in various tumour cell lines (Experiment 3). It counts as cell-based. The text has this: (§11) Die nachfolgenden Experimente 3 und 4 zeigen, dass die erfindungsgemäßen neuen Triazenverbindungen eine vergleichbare Anti-Tumorwirkung (IC50) in zahlreichen Krebszelllinien wie der HepG2 (Leber), HCT8 (Darm), DU-145 (Prostata), MCF-7 und MDA-MB-231 (Brust) und MiaPaca-2 (Bauchspeicheldrüse) bei bis zu 100fach niedrigeren Konzentrationen zeigen als vergleichbare Triazene wie DTIC, TMZ oder Substanzen wie sie in der WO 2009/004060 und der DE 1 7931 1 5 beschrieben sind.
(§12) Verschiedene Triazene wie erfindungsgemäße Verbindungen nach Beispiel 1, DTIC, TMZ sowie Verbindungen nach Präparat 2 und 5 (entsprechend Verbindungen nach Präparat 2 und Beispiel 2a jeweils der WO 2009/004060) sowie Verbindungen nach Beispiel 33 der DE1793115 wurden in DMSO bzw. Wasser gelöst.

Series [7] has as its system MDA-MB231 Zellen. The series can be described thus: Intracellular uptake of triazenes in MDA-MB231 cells (Experiment 2). The class given is in vitro ADME. As to conditions: MDA-MB231, 50.000ng/ml, 50% FCS, 2, 3,5 und 20 Stunden. Here is the method: as §5, §6, §3, §7
Series [8] concerns HepG2. Description: Intracellular metabolisation of triazenes in HepG2 cell culture (Experiment 1). It counts as in vitro ADME. Particulars: HepG2, 100nmol/ml, 100% FCS, binnen 6 Stunden. Here is the method:
as §1, §2, §3, §4

In series [9] the test system is MDA-MB231. The series can be described thus: IC50 of triazenes in MDA-MB231 cell line (Experiment 3). Particulars: Homo sapiens, MDA-MB-231; IC50 für die MDA-MB231 gemäß Experiment 3; used as incubation concentration for PBC. It counts as cell-based.
Text: as §11, §12, §8

In series [10] the test system is MDA-MB231. Description: Cell cycle analysis by flow cytometry in MDA-MB231 (Experiment 9). Particulars: MDA-MB231, incubated with IC50, nach 10 bzw. 24 Stunden. It counts as cell-based.
Text: as §9, §10

“Also recorded” adds a separate entry of the source. Read-outs that look alike come from different tables or passages of the source. A value given as a limit tells only on which side of the number the result lay.

For `CN(C)N=Nc1ccc(C(=O)c2ccc(O)cc2)cc1` [Beispiel 1], the concentration for half-maximal inhibition (IC50) is 22.8 µM in series [1] (mean of Exp. 1-4, read-out: IC50 Mittelwert); 23.4 µM in [1] (read-out: IC50 Exp. 1); 29.7 µM in series [1] (read-out: IC50 Exp. 2); 23.8 µM in series [1] (read-out: IC50 Exp. 3); 14.1 µM in series [1] (read-out: IC50 Exp. 4); 27.5 µM in series [9]. Moreover, the metabolisiert entry is reported as “mehr als der Hälfte” in [2] (innerhalb von 1 Stunde) and “vollständig metabolisiert” in series [2] (nach 3 Stunden). Moreover, the “intrazelluläre Konzentration vs. Vergleichssubstanzen” value in [3] and in series [7] was “deutlich schneller und in höheren Konzentrationen intrazellulär nachweisbar” each time. In addition, in series [4] (PBC, 24 stündige Inkubation), the “Zellschädigung (Apoptoserate) vs. Negativkontrolle” value is “nicht mehr geschädigt als durch eine Negativkontrolle”. Also, the “% Zellen in Apoptose” value in [4] (Versuch 1 Lymphozyten, 24 Stunden incubation at the IC50 for MDA-MB231) is on record as 8,120%. Also, the “Zellen in der G1 Phase” value in series [5] (HL-60, IC90, nach 24 Stunden) is on record as less than 2%. Besides, in series [5] (HL-60, IC90, nach 24 Stunden), the “eingesetzte Zellen tot” value is approximately 40%. Moreover, the Zellzyklus result is “ausgeprägten G2 Arrest” in series [5] (HL-60, incubated with IC90, nach 12 bzw. 24 Stunden) and “ausgeprägten G2 Arrest nach 10 bzw. 24 Stunden und massivem Zelltod (SubG1)” in [10]. In addition, the “antitumorale Aktivität (IC50) compared with other triazenes” value in series [6] is “deutlich wirksamer; also recorded: höhere antitumorale Aktivität”. Moreover, the Ausgangssubstanz metabolisiert in [8] is 28%.

Broadly, the IC50 is the concentration at which inhibition is half-maximal.

(Values after EP2557075A1, “New triazene compounds for treating cancer” (Trin Therapeutics GmbH, priority 2011, dated 2013).)
